Where a SMILES comes first, the peptide text is derived from it. [ ]: non-standard residue; d: D form. The star is where a group is joined. Phe(4-F) = N[C@@H](Cc1ccc(F)cc1)C(=O)O; Cbz = O=C(OCc1ccccc1)*
Assays:
[1] = target: Replicase polyprotein 1ab (Severe acute respiratory syndrome coronavirus 2, UniProt P0DTD1); test: Inhibition of SARS-CoV-2 3CL protease by FRET assay
[2] = target: Replicase polyprotein 1ab (Severe acute respiratory syndrome coronavirus 2) (UniProt P0DTD1); test: Binding affinity to SARS-CoV-2 3CL protease assessed as biphasic dissociation rate by measuring half life by jump dilution assay
[3] = target: Replicase polyprotein 1ab (Severe acute respiratory syndrome coronavirus 2) (UniProt P0DTD1); test: Binding affinity to SARS-CoV-2 3CL protease assessed as monophasic dissociation rate by measuring half life by jump dilution assay
SARS-CoV-2 = test: microbe, parasite or virus in culture; conditions: Severe acute respiratory syndrome coronavirus 2, Vero, read-out: pEC50 (converted)
Description: Antiviral activity against SARS-CoV-2 infected in african green monkey Vero cells assessed as virus-induced cell death

cells = conditions: Betacoronavirus 1, MRC5, read-out: pEC50 (converted)
Description: Antiviral activity against SARS-CoV-2 OC43 infected in human MRC5 cells assessed as inhibition of bacterial growth

[4] = Cytotoxicity against human MRC5 cells infected with […] inhibition of cell growth; type: toxicity, cell-based
[5] = Permeability of compound in MDCK cells; type: ADME, cell-based, Canis lupus familiaris; conditions: dog, read-out: permeability

Compound | IC50 [1] [nM] | T1/2 [2] [min] | Ki [1] [nM] | T1/2 [3] [min] | EC50 (SARS-CoV-2) [nM] | EC50 (cells) [nM] | CC50 [4] [nM] | Papp [5] [×10⁻⁶ cm/s]
CC(C)C[C@H](NC(=O)[C@H](Cc1ccc(F)cc1)NC(=O)OCc1ccccc1)C(=O)N[C@@H](/C=C1\CCOC1=O)C[C@@H]1CCCO1 | > 1000 |  |  |  |  |  |  | 
CC(C)C[C@H](NC(=O)[C@H](Cc1ccc(F)cc1)NC(=O)OCc1ccccc1)C(=O)N[C@H](/C=C1\CCOC1=O)C[C@@H]1CCNC1=O | 1.58 | 468 |  |  |  |  |  | 
CC(C)C[C@H](NC(=O)[C@H](Cc1ccc(F)cc1)NC(=O)OCc1ccccc1)C(=O)N[C@@H](C[C@@H]1CCNC1=O)C(=O)C(=O)NC(C)C | 5.01 |  | 5.01 | 18 |  |  |  | 
CC(C)C[C@H](NC(=O)[C@H](Cc1ccc(F)cc1)NC(=O)OCc1ccccc1)C(=O)N[C@@H](/C=C1\CCOC1=O)C[C@H]1CCCO1 | > 1000 |  |  |  |  |  |  | 
CC(C)C[C@H](NC(=O)[C@H](Cc1ccc(F)cc1)NC(=O)OCc1ccccc1)C(=O)N[C@H](/C=C1\CCOC1=O)C[C@@H]1CCCO1 | 39.8 | 660 |  |  | 15800 |  |  | 
CC(C)C[C@H](NC(=O)[C@H](Cc1ccc(F)cc1)NC(=O)OCc1ccccc1)C(=O)N[C@H](/C=C1\CCOC1=O)C[C@H]1CCCO1 | 126 |  |  | 12 | 15800 |  |  | 
CSCC[C@@H](C=O)NC(=O)[C@H](CC(C)C)NC(=O)[C@H](Cc1ccc(F)cc1)NC(=O)OCc1ccccc1 (Cbz-[Phe(4-F)]-Leu-Met-aldehyde) | 6.31 |  |  | < 12 | 1260 | 1000 | 3980 | 
CC(C)C[C@H](NC(=O)[C@H](Cc1ccc(F)cc1)NC(=O)OCc1ccccc1)C(=O)NC(C=O)CCF (mixture of isomers) | 631 |  |  | < 12 | 1000 | > 50100 | 2000 | 
CC(C)C[C@H](NC(=O)[C@H](Cc1ccc(F)cc1)NC(=O)OCc1ccccc1)C(=O)NC(C=O)CC(F)F (mixture of isomers) | 1000 |  |  | < 12 | 1000 | > 1580 | 1580 | 
CC(C)C[C@H](NC(=O)[C@H](Cc1ccc(F)cc1)NC(=O)OCc1ccccc1)C(=O)NC(/C=C1\CCOC1=O)CC1CCCO1 (mixture of isomers) | 158 |  |  | 18 |  |  |  | 
CC(C)C[C@H](NC(=O)[C@H](Cc1ccc(F)cc1)NC(=O)OCc1ccccc1)C(=O)NC(C=O)Cc1ccccn1 (mixture of isomers) | 12.6 |  |  | 18 |  | 1580 | 10000 | 
CC(C)C[C@H](NC(=O)[C@H](Cc1ccc(F)cc1)NC(=O)OCc1ccccc1)C(=O)NC(CC1CCCO1)C(=O)C(=O)NC(C)C (mixture of isomers) | 200 |  |  | 12 |  |  |  | 
CC(C)C[C@H](NC(=O)[C@H](Cc1ccc(F)cc1)NC(=O)OCc1ccccc1)C(=O)NC(C=O)CC(F)(F)F (mixture of isomers) | > 1000 |  |  |  | 631 | > 1260 | 1260 | 
CC(C)C[C@H](NC(=O)[C@H](Cc1ccc(F)cc1)NC(=O)OCc1ccccc1)C(=O)NC(C=O)Cc1cccnc1 (mixture of isomers) | > 1000 |  |  |  | 2000 | > 10000 | 10000 | 
CC(C)C[C@H](NC(=O)[C@H](Cc1ccc(F)cc1)NC(=O)OCc1ccccc1)C(=O)NC(C=O)Cc1ccc(F)cc1 (mixture of isomers) | 794 |  |  | < 12 | 2000 | > 1260 | 1260 | 
CC(C)C[C@H](NC(=O)[C@H](Cc1ccc(F)cc1)NC(=O)OCc1ccccc1)C(=O)NC(C=O)Cc1cncs1 (mixture of isomers) | > 1000 |  |  |  |  | > 50100 | 2000 | 
CC(C)C[C@H](NC(=O)[C@H](Cc1ccc(F)cc1)NC(=O)OCc1ccccc1)C(=O)NC(C=O)Cc1ccncc1 (mixture of isomers) | > 1000 |  |  |  | 631 | > 5010 | 5010 | 
CC(C)C[C@H](NC(=O)[C@H](Cc1ccc(F)cc1)NC(=O)OCc1ccccc1)C(=O)NC(C=O)Cc1ccccc1F (mixture of isomers) | 3.16 | 414 |  |  | 1580 | 398 | 1260 | 5.27
CC(C)C[C@H](NC(=O)[C@H](Cc1ccc(F)cc1)NC(=O)OCc1ccccc1)C(=O)NC(C=O)Cc1cccc(F)c1 (mixture of isomers) | 631 |  |  | < 12 | 2510 | 794 | 794 | 
CC(C)C[C@H](NC(=O)[C@H](Cc1ccc(F)cc1)NC(=O)OCc1ccccc1)C(=O)NC(C=O)Cc1ccco1 (mixture of isomers) | 126 |  |  | < 12 | 5010 |  |  | 
CC(C)C[C@H](NC(=O)[C@H](Cc1ccc(F)cc1)NC(=O)OCc1ccccc1)C(=O)NC(C=O)Cc1c[nH]cn1 (mixture of isomers) | 15.8 |  |  | < 12 | 3980 | 25100 | > 50100 | 
CC(C)C[C@H](NC(=O)[C@H](Cc1ccc(F)cc1)NC(=O)OCc1ccccc1)C(=O)NC(C=O)C[C@@H]1CCNC1=O (mixture of isomers) | 0.398 | 840 |  |  | 1000 | 3160 | > 50100 | 1.62
CC(C)C[C@H](NC(=O)[C@H](Cc1ccc(F)cc1)NC(=O)OCc1ccccc1)C(=O)N[C@H](C=O)CC[S+](C)[O-] (mixture of isomers) | 7.94 | 660 |  |  | 7940 | > 50100 | > 50100 | 
CC(C)C[C@H](NC(=O)[C@H](Cc1ccc(F)cc1)NC(=O)OCc1ccccc1)C(=O)NC(C=O)CC1CCCC1 (mixture of isomers) | 79.4 |  |  | < 12 |  | 1000 | 10000 | 
CC(C)C[C@H](NC(=O)[C@H](Cc1ccc(F)cc1)NC(=O)OCc1ccccc1)C(=O)NC(C=O)CC1CCCCO1 (mixture of isomers) | 39.8 |  |  | 18 | 2000 |  | > 50100 | 
CC(C)C[C@H](NC(=O)[C@H](Cc1ccc(F)cc1)NC(=O)OCc1ccccc1)C(=O)NC(C=O)CC1CCCO1 (mixture of isomers) | 1.26 | 660 |  |  | 2510 | 316 | 10000 | 9.56
COCCC(C=O)NC(=O)[C@H](CC(C)C)NC(=O)[C@H](Cc1ccc(F)cc1)NC(=O)OCc1ccccc1 (mixture of isomers) | 31.6 |  |  | < 12 | 1580 | 1260 | 10000 | 

From ChEMBL document CHEMBL5523693, “Exploration of the P1 residue in 3CL protease inhibitors leading to the discovery of a 2-tetrahydrofuran P1 replacement” (Bioorg Med Chem, 2024)
